In PMC5520057, “Modulation of nongenomic activation of PI3K signalling by tetramerization of N-terminally-cleaved RXRα” (Nature Communications, 2017):

Tests used:
RXRα-LBD [1] = target: T1, RXRα-LBD (Homo sapiens, UniProt P19793); assay: Isothermal titration calorimetry (ITC), RXRα-LBD; assay type: binding; details: 25 °C, protein 50 μM in 25 mM Tris-HCl, pH 7.5, 150 mM NaCl, 0.1% DMSO, compound 1 mM
T1 construct: The human RXRα LBD (residues Thr223 to Thr462); made in house; host or cells: Escherichia coli BL21
T1 sequence (P19793 223-462): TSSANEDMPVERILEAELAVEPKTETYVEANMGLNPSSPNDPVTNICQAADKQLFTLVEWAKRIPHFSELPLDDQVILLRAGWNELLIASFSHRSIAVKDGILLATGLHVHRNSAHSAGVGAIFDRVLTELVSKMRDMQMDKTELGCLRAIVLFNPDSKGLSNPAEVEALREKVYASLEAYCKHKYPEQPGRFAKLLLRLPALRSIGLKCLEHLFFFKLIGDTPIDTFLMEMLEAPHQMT
Procedure: (§1) The human RXRα LBD (residues Thr223 to Thr462) cloned as an N-terminal histidine-tagged fusion protein in pET15b expression vector was expressed in Escherichia coli BL21 strain (Stratagene). After sonication, cell extract was incubated with the His60 Ni Superflow resin, and His-tagged RXRα-LBD-resin complexes were washed, eluted and concentrated to 5 mg ml^−1 for subsequent trails. For crystallization experiment, bovine thrombin (Sigma) was used to cleave the His tag from the purified His-tagged RXRα-LBD. The resulting His tag was removed on the Resource-Q column (GE) using 0.1–1 M NaCl gradient and the Tris-Cl pH 8 buffer. RXRα-LDB was further purified using gel filtration on a Superdex 200 2660 column (GE) pre-equilibrated with the 75 mM NaCl, 20 mM Tris-Cl buffer (pH 8).
Binding of compounds to RXRα-LBD or mutant was studied in […] at 25 °C using isothermal titration calorimetry (ITC) assay that measures the heat either released or absorbed during binding. The purified His-tagged RXRα-LBD or mutant protein (50 μM in 25 mM Tris-HCl, pH 7.5, 150 mM NaCl, 0.1% DMSO) was placed in the sample cell of MicroCal VP-ITC titration calorimeter. The compounds to be studied were diluted to a concentration of 1 mM in the same buffer. All solutions were degassed before the titrations. […] Calorimetric data were analysed using MicroCal Origin software (version 7.0).

tRXRα/R316E = assay: BS3 crosslinking, tRXRα/R316E; assay type: cell-based; details: MCF-7 cells, 9-cis-RA (10^−7 M) or K-80003 (5 × 10^−6 M) for 6 h
Procedure: (§2) Cell lysates were then prepared and incubated with bis[sulfosuccinimidyl] suberate (BS3, Pierce) dissolved in dimethyl sulfoxide to a final concentration of 1 mM. The reactions were stopped with protein gel loading buffer. Samples were resolved by SDS/PAGE in 8% acrylamide gels and protein bands were visualized by western blotting.

RXRα-LBD [2] = assay: BS3 crosslinking, transfected RXRα-LBD; assay type: cell-based; details: HepG2 cells; 9-cis-RA (10^−7 M) or K-80003 (5 × 10^−6 M) for 6 h; BS3 1 mM; western blotting
Procedure: as §2

RXRα-LBD [3] = target: T1, RXRα-LBD; assay: Crystal structure of RXRα-LBD complex; assay type: binding; details: crystal structure at 2.6 Å, PDB 5TBP
Procedure: as §1
Crystallization conditions were initially determined using the sitting-drop vapor-diffusion method and the crystallization screens Index and PEG-Ion solutions from Hampton Research. Final crystals were obtained by cocrystallizing the protein and the ligand. The protein-ligand complex contained 0.35 mM of RXRα-LBD, 0.5–0.7 mM of a ligand, 1% DMSO, 100 mM NaCl and 20 mM Tris-Cl buffer (pH 7.6). 0.2 μl of the protein-ligand complex was mixed with 0.2 μl of the well solution (20% […] and 0.2 M Na Acetate) and incubated at 20 °C. Crystals appeared in 5–10 days and grew into 0.2 × 0.1 × 0.1 mm prisms. The crystals were flash-cooled in mother liquor containing 1.5 mM of K-80003 and 20% glycerol as a cryoprotectant. Diffraction data was collected from the cryo-cooled crystal (100 K) on an in-house diffractometer (Rigaku X-ray generator with a rotating anode, VariMax optic and R-AXIS HTC detector). Data was processed using the programme iMOSFLM, part of the CCP4 suite. The b-factor of the data set according to the Wilson plot was 60 Å^2.
The crystal structures were determined using the molecular replacement program Phaser[76] with pdb entry 4N8R as an initial model. Coot[77] and the program suite Phenix[78] were used for the model rebuilding and refinement. […]

[4] = system: p85α / tRXRα/F313A interaction; assay: coIP, p85α with tRXRα/F313A; assay type: cell-based; details: HEK293T cells; K-80003 (5 × 10^−6 M) for 6 h; coIP anti-HA
Procedure: For coIP assay[29], HEK293T cells grown in 10 cm dishes were transfected with various plasmids. Cells were lysed in 1 ml of lysis buffer (20 mM Tris (pH 7.5), 150 mM NaCl, 1% Triton X-100, 1 mM EDTA, 30 mM NaF, 2 mM sodium pyrophosphate) with a cocktail of proteinase inhibitors (Roche). Lysates were incubated with the appropriate antibody for 12 h at 4 °C and subsequently incubated with protein A-Sepharose beads for 1 h. The immunoprecipitates were collected and washed three times with lysis buffer. The protein–antibody complexes recovered on beads were subjected to immunoblotting using appropriate antibodies after separation by SDS-PAGE. Input represents 5% of cell lysates used for coIP assays.

CC1=C(CC(=O)O)c2cc(F)ccc2/C1=C\c1ccc(C(C)C)cc1 [K-80003]
N (stoichiometry) (RXRα-LBD [1]): 1.52 | oligomeric state of tRXRα/R316E (tRXRα/R316E): strong tetrameric species of tRXRα/R316E but not tRXRα/F313A independent of the presence of 9-cis-RA or K-80003 | crosslinked RXRα-LBD species (RXRα-LBD [2]): crosslinked species on SDS-PAGE gels of 25, 50 and 100 kDa, corresponding to monomer, dimer and tetramer of RXRα-LBD | binding mode (RXRα-LBD [3]): ‘3-pronged’ binding mode | molecules bound per tetramer (RXRα-LBD [3]): six molecules of K-80003-bound per tetramer | molecules bound per interfacial cavity (RXRα-LBD [3]; A1/B2 or A2/B1 cavity): three molecules per A1/B2 or A2/B1 interfacial cavity | modulation of tRXRα/F313A interaction with p85α [4]: failed to modulate the interaction of both mutants with p85α
